Common to all, as to assay: relative viability (nuclei count vs DMSO), 5 days (fraction); higher = more cells survive
Compound in assay [1]: CC1=C(N=C(N=C1N)[C@H](CC(=O)N)NC[C@@H](C(=O)N)N)C(=O)N[C@@H]([C@H](C2=CN=CN2)OC3C(C(C(C(O3)CO)O)O)OC4C(C(C(C(O4)CO)O)OC(=O)N)O)C(=O)N[C@H](C)[C@H]([C@H](C)C(=O)N[C@@H]([C@@H](C)O)C(=O)NCCC5=NC(=CS5)C6=NC(=CS6)C(=O)NCCC[S+](C)C)O [Bleomycin] + CC(C)C[C@H](NC(=O)[C@H](Cc1ccccc1)NC(=O)c1cnccn1)B(O)O [Bortezomib] (partner 0.002 µM)
Particulars: main component drawn. Put shortly:
(§1)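 Each reported value is a median over duplicate plates. It expresses relative viability: treated-well nuclei count divided by vehicle-well nuclei count. Lung cancer cell lines in 1536-well plates were dosed by pin tool a day after seeding, alone with one drug or with a fixed anchor-drug dose plus five library-drug doses (not always all listed) in √10 steps, and nuclei were counted after 5 days.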

Compound in assay [2]: CC1=C(N=C(N=C1N)[C@H](CC(=O)N)NC[C@@H](C(=O)N)N)C(=O)N[C@@H]([C@H](C2=CN=CN2)OC3C(C(C(C(O3)CO)O)O)OC4C(C(C(C(O4)CO)O)OC(=O)N)O)C(=O)N[C@H](C)[C@H]([C@H](C)C(=O)N[C@@H]([C@@H](C)O)C(=O)NCCC5=NC(=CS5)C6=NC(=CS6)C(=O)NCCC[S+](C)C)O [Bleomycin] + O=C(c1cc(Cc2n[nH]c(=O)c3ccccc23)ccc1F)N1CCN(C(=O)C2CC2)CC1 [Olaparib] (partner 8 µM)
The settings on record: main component drawn. Put shortly: as §1

Compound in assay [3]: COc1cc([C@@H]2c3cc4c(cc3[C@@H](O[C@@H]3O[C@@H]5CO[C@@H](C)O[C@H]5[C@H](O)[C@H]3O)[C@H]3COC(=O)[C@H]23)OCO4)cc(OC)c1O [Etoposide] + Cc1nc(Nc2ncc(C(=O)Nc3c(C)cccc3Cl)s2)cc(N2CCN(CCO)CC2)n1 [Dasatinib] (partner 0.075 µM)
Put shortly: as §1

Compound in assay [4]: CC1=C(N=C(N=C1N)[C@H](CC(=O)N)NC[C@@H](C(=O)N)N)C(=O)N[C@@H]([C@H](C2=CN=CN2)OC3C(C(C(C(O3)CO)O)O)OC4C(C(C(C(O4)CO)O)OC(=O)N)O)C(=O)N[C@H](C)[C@H]([C@H](C)C(=O)N[C@@H]([C@@H](C)O)C(=O)NCCC5=NC(=CS5)C6=NC(=CS6)C(=O)NCCC[S+](C)C)O [Bleomycin] + CS(=O)(=O)N1CCN(Cc2cc3nc(-c4cccc5[nH]ncc45)nc(N4CCOCC4)c3s2)CC1 [Pictilisib] (partner 1 µM)
Particulars: main component drawn. Put shortly:
as §1

As for NCI-H2023, the relative viability was 0.61 in assay [1] (first compound 0.01 µM); 0.772 in assay [1] (first compound 0.03162 µM); 0.548 in assay [1] (first compound 0.1 µM); 0.205 in assay [1] (first compound 0.3162 µM); 0.11 in assay [1] (first compound 1 µM); 0.273 in assay [2] (first compound 0.01 µM). The relative viability in assay [2] (first compound 0.03162 µM) worked out at 0.357; in assay [2] (first compound 0.1 µM) it was 0.238; in assay [2] (first compound 0.3162 µM), 0.0886; in assay [2] (first compound 1 µM), 0.09; in assay [3] (first compound 0.01 µM) it was 0.492; in assay [3] (first compound 0.03162 µM), 0.554. The relative viability in assay [3] (first compound 0.1 µM) came out at 0.378; in assay [3] (first compound 0.3162 µM) it was 0.326; in assay [3] (first compound 1 µM), 0.125; in assay [4] (first compound 0.01 µM), 0.225; in assay [4] (first compound 0.03162 µM), 0.193; in assay [4] (first compound 0.1 µM), 0.158. Moreover, the values for the relative viability in assay [4] (first compound 0.3162 µM) and in assay [4] (first compound 1 µM) were 0.124 and 0.0805, respectively.

For LC-2-ad, the relative viability in assay [1] (first compound 0.01 µM) turned out to be 0.943; in assay [1] (first compound 0.03162 µM) it was 0.624; in assay [1] (first compound 0.1 µM), 0.316; in assay [1] (first compound 0.3162 µM), 0.127; in assay [1] (first compound 1 µM), 0.0954; in assay [2] (first compound 0.01 µM), 0.574. The relative viability in assay [2] (first compound 0.03162 µM) was found to be 0.431; in assay [2] (first compound 0.1 µM) it was 0.287; in assay [2] (first compound 0.3162 µM) it was 0.235; in assay [2] (first compound 1 µM), 0.219; in assay [3] (first compound 0.01 µM), 0.546; in assay [3] (first compound 0.03162 µM), 0.612. Also, the relative viability in assay [3] (first compound 0.1 µM) worked out at 0.451; in assay [3] (first compound 0.3162 µM), 0.244; in assay [3] (first compound 1 µM), 0.142; in assay [4] (first compound 0.01 µM), 0.255; in assay [4] (first compound 0.03162 µM), 0.368; in assay [4] (first compound 0.1 µM), 0.292. Further, the figures for the relative viability in assay [4] (first compound 0.3162 µM) and in assay [4] (first compound 1 µM) were 0.173 and 0.106, respectively.

As to NCI-H1703, the relative viability in assay [1] (first compound 0.01 µM) turned out to be 0.328; in assay [1] (first compound 0.03162 µM) it was 0.276; in assay [1] (first compound 0.1 µM) it was 0.245; in assay [1] (first compound 0.3162 µM) it was 0.134; in assay [1] (first compound 1 µM), 0.125; in assay [2] (first compound 0.01 µM), 0.55. Further, the relative viability is 0.508 in assay [2] (first compound 0.03162 µM); 0.289 in assay [2] (first compound 0.1 µM); 0.309 in assay [2] (first compound 0.3162 µM); 0.166 in assay [2] (first compound 1 µM); 0.226 in assay [4] (first compound 0.01 µM); 0.236 in assay [4] (first compound 0.03162 µM). The relative viability was 0.26 in assay [4] (first compound 0.1 µM), 0.219 in assay [4] (first compound 0.3162 µM) and 0.176 in assay [4] (first compound 1 µM).

With Calu-6, the relative viability in assay [1] (first compound 0.01 µM) stood at 0.638; in assay [1] (first compound 0.03162 µM), 0.673; in assay [1] (first compound 0.1 µM), 0.334; in assay [1] (first compound 0.3162 µM), 0.226; in assay [1] (first compound 1 µM), 0.191; in assay [2] (first compound 0.01 µM), 0.375. The relative viability in assay [2] (first compound 0.03162 µM) stood at 0.343; in assay [2] (first compound 0.1 µM) it was 0.254; in assay [2] (first compound 0.3162 µM), 0.127; in assay [2] (first compound 1 µM), 0.137; in assay [4] (first compound 0.01 µM) it was 0.575; in assay [4] (first compound 0.03162 µM) it was 0.537. Moreover, the relative viability in assay [4] (first compound 0.1 µM) came to 0.385; in assay [4] (first compound 0.3162 µM), 0.179; in assay [4] (first compound 1 µM), 0.177.

As to SK-MES-1, the relative viability came to 0.528 in assay [2] (first compound 0.01 µM); 0.493 in assay [2] (first compound 0.03162 µM); 0.439 in assay [2] (first compound 0.1 µM); 0.169 in assay [2] (first compound 0.3162 µM); 0.153 in assay [2] (first compound 1 µM); 0.315 in assay [3] (first compound 0.01 µM). Besides, the relative viability in assay [3] (first compound 0.03162 µM) turned out to be 0.388; in assay [3] (first compound 0.1 µM), 0.429; in assay [3] (first compound 0.3162 µM), 0.286; in assay [3] (first compound 1 µM), 0.131; in assay [4] (first compound 0.01 µM), 0.432; in assay [4] (first compound 0.03162 µM) it was 0.274. The relative viability was 0.307 in assay [4] (first compound 0.1 µM), 0.201 in assay [4] (first compound 0.3162 µM) and 0.116 in assay [4] (first compound 1 µM).

As for EBC-1, the relative viability in assay [1] (first compound 0.01 µM) stood at 0.474; in assay [1] (first compound 0.03162 µM) it was 0.422; in assay [1] (first compound 0.1 µM) it was 0.469; in assay [1] (first compound 0.3162 µM) it was 0.307; in assay [1] (first compound 1 µM) it was 0.233; in assay [2] (first compound 0.01 µM), 0.604. Further, the relative viability in assay [2] (first compound 0.03162 µM) stood at 0.671; in assay [2] (first compound 0.1 µM) it was 0.645; in assay [2] (first compound 0.3162 µM), 0.419; in assay [2] (first compound 1 µM) it was 0.331; in assay [4] (first compound 0.01 µM), 0.359; in assay [4] (first compound 0.03162 µM), 0.376. The relative viability in assay [4] (first compound 0.1 µM) is 0.346; in assay [4] (first compound 0.3162 µM), 0.272; in assay [4] (first compound 1 µM) it was 0.283.

For the cell line NCI-H1623, the relative viability worked out at 0.68 in assay [3] (first compound 0.01 µM); 0.592 in assay [3] (first compound 0.03162 µM); 0.334 in assay [3] (first compound 0.1 µM); 0.267 in assay [3] (first compound 0.3162 µM); 0.294 in assay [3] (first compound 1 µM).

For the cell line NCI-H2342, the relative viability in assay [2] (first compound 0.01 µM) worked out at 0.377; in assay [2] (first compound 0.03162 µM), 0.4; in assay [2] (first compound 0.1 µM), 0.416; in assay [2] (first compound 0.3162 µM) it was 0.319; in assay [2] (first compound 1 µM), 0.362; in assay [3] (first compound 0.01 µM), 0.317. Besides, the relative viability in assay [3] (first compound 0.03162 µM) worked out at 0.315; in assay [3] (first compound 0.1 µM), 0.3; in assay [3] (first compound 0.3162 µM) it was 0.229; in assay [3] (first compound 1 µM), 0.254.

With SW 900, the relative viability in assay [2] (first compound 0.01 µM) was determined as 0.577; in assay [2] (first compound 0.03162 µM), 0.615; in assay [2] (first compound 0.1 µM), 0.442; in assay [2] (first compound 0.3162 µM), 0.218; in assay [2] (first compound 1 µM), 0.206; in assay [3] (first compound 0.01 µM), 0.62. Moreover, the relative viability in assay [3] (first compound 0.03162 µM) came to 0.659; in assay [3] (first compound 0.1 µM), 0.395; in assay [3] (first compound 0.3162 µM), 0.591; in assay [3] (first compound 1 µM), 0.147.

In the case of NCI-H1563, the relative viability in assay [1] (first compound 0.01 µM) turned out to be 0.755; in assay [1] (first compound 0.03162 µM), 0.767; in assay [1] (first compound 0.1 µM), 0.689; in assay [1] (first compound 0.3162 µM), 0.536; in assay [1] (first compound 1 µM), 0.531; in assay [3] (first compound 0.01 µM) it was 0.416. The relative viability in assay [3] (first compound 0.03162 µM) came out at 0.514; in assay [3] (first compound 0.1 µM), 0.435; in assay [3] (first compound 0.3162 µM), 0.387; in assay [3] (first compound 1 µM), 0.349; in assay [4] (first compound 0.01 µM), 0.608; in assay [4] (first compound 0.03162 µM), 0.698. Besides, the relative viability in assay [4] (first compound 0.1 µM) stood at 0.623; in assay [4] (first compound 0.3162 µM), 0.574; in assay [4] (first compound 1 µM), 0.533.

The values are drawn from the supplement of paper PMC10307832.
